Calls of active or inactive are those of the source. No cut-off for these calls is given here.
Key:
[1] = tested on: Capan-2; experiment: Antiproliferative activity against human Capan-2 cells assessed as inhibition of cell growth incubated for 72 hrs by CCK-8 assay; format: functional, cell-based
[2] = AUC (0 to t) in Sprague-Dawley rat at 2 mg/kg, iv measured upto 48 hrs by LC-MS/MS analysis; format: ADME, organism-based; details: in vivo

## C#CCN(Cc1ccc(S(=O)(=O)N(C)C#C)cc1)c1ccc(-c2nc3ccccc3s2)cc1
[1]
  Activity: inactive
[2]
  AUC(0-t) at 48 h: 915 ng·h/mL

Reference: ChEMBL document CHEMBL5537195, “Novel Covalent Probe Selectively Targeting Glutathione Peroxidase 4 In Vivo: Potential Applications in Pancreatic Cancer Therapy” (J Med Chem, 2024)
